The Ki is a dissociation constant, usually derived from enzyme kinetics or from competition with a known ligand.

Where only a bound is given, the exact number is not on record here.

Data on one molecule can be found in ChEMBL document CHEMBL1132360, “N-Substituted (2,3-dihydro-1,4-benzodioxin-2-yl)methylamine derivatives as D(2) antagonists/5-HT(1A) partial agonists with potential as atypical antipsychotic agents” (J Med Chem, 1999).

Assay [1] addresses T1, Adrenergic receptor alpha-1 (Homo sapiens, UniProt P35348+P25100+P35368).
T1 sequence (P35348 whole entry): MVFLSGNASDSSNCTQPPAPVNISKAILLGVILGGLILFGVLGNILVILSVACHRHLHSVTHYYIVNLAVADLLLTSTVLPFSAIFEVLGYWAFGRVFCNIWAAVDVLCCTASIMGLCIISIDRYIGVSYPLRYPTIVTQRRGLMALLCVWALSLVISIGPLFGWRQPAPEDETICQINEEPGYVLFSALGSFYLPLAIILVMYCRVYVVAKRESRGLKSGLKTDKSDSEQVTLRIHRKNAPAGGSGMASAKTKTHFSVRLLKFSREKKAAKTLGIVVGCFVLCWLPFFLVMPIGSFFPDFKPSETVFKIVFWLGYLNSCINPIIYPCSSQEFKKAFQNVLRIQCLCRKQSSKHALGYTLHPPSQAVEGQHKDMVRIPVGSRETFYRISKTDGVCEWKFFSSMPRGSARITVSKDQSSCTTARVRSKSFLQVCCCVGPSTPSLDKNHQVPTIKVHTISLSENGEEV
T1 sequence (P25100 whole entry): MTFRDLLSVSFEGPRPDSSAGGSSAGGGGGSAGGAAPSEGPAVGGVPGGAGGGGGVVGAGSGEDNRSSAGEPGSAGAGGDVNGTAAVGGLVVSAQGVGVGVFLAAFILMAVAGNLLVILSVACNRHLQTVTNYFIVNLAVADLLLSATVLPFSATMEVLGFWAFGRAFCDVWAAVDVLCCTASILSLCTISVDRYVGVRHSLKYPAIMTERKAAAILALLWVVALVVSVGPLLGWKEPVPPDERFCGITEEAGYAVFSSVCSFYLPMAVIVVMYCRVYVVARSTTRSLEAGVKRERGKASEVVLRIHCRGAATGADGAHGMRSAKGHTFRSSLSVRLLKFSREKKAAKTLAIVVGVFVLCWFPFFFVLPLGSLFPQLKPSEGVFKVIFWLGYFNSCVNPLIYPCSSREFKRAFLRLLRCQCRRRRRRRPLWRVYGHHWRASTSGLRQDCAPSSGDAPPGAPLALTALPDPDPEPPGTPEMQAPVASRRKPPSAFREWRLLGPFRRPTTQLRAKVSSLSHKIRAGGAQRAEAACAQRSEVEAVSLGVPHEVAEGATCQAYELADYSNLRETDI
T1 sequence (P35368 whole entry): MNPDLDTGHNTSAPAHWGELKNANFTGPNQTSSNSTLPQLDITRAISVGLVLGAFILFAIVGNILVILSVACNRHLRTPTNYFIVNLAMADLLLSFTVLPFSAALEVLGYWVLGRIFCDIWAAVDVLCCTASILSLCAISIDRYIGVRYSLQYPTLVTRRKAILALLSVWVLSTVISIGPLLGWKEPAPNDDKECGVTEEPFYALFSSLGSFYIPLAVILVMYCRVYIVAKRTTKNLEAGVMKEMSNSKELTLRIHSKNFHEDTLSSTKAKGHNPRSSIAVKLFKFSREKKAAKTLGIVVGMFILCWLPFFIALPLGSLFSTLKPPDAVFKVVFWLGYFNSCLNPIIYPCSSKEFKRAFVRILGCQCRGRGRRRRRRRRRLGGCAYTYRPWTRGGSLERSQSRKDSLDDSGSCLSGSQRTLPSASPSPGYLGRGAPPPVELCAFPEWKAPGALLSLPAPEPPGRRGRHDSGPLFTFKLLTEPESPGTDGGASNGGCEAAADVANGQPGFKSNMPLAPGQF
Nature of the assay: Binding affinity towards Alpha-1 adrenergic receptor in human cortex membranes. It is filed as cell membranes.

Assay [2] has as its target Serotonin 4 (5-HT4) receptor (Sus scrofa, UniProt Q6Q253). Nature of the assay: The compound was tested for binding affinity against 5-hydroxytryptamine 4 receptor.
Assay [3] addresses T2, Alpha-2A adrenergic receptor (Rattus norvegicus, UniProt P22909).
T2 sequence (P22909 whole entry): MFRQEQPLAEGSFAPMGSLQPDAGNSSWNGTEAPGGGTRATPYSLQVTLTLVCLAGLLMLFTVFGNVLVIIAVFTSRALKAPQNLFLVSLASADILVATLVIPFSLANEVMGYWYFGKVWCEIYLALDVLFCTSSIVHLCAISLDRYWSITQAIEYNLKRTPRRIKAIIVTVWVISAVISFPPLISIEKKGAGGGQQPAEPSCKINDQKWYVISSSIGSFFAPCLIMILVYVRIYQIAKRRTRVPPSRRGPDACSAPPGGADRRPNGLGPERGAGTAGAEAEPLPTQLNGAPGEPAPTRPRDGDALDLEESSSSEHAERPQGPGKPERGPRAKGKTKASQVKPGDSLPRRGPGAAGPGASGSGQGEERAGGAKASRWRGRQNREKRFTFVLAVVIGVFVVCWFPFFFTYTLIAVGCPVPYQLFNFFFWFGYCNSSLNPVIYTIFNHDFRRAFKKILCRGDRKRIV
Nature of the assay: The compound was tested for binding affinity against alpha-2D adrenergic receptor.

The target of another assay is D(1A) dopamine receptor (Homo sapiens, UniProt P21728). Nature of the assay: The compound was tested for binding affinity against human Dopamine receptor D1.
Sequence of D(1A) dopamine receptor (P21728 whole entry): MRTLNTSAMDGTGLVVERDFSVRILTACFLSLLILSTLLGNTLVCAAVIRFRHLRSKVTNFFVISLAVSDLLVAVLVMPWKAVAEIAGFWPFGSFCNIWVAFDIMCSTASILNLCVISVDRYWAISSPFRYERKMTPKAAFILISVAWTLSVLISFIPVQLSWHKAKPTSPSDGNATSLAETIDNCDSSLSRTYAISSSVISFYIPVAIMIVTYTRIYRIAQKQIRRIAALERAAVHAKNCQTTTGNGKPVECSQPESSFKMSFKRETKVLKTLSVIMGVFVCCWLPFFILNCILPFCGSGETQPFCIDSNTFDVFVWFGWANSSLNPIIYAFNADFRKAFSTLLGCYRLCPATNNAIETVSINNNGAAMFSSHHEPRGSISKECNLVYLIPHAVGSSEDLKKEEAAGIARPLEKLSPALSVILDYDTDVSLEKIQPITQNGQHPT
Assay [4] addresses T3, 5-hydroxytryptamine receptor 1A (Homo sapiens, UniProt P08908).
T3 sequence (P08908 whole entry): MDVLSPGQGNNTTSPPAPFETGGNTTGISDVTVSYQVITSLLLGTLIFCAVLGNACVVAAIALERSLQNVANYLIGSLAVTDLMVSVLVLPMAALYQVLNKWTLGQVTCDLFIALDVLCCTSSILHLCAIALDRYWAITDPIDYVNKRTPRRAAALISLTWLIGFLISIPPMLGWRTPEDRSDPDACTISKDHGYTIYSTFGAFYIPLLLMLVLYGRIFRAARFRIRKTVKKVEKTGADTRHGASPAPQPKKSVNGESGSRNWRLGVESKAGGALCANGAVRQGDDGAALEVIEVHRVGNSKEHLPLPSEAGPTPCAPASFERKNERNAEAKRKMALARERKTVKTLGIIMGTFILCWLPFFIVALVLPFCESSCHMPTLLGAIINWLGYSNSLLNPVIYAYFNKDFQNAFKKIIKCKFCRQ
Put plainly: The compound was tested for binding affinity against 5-hydroxytryptamine 1A receptor receptor.

Sequence of Serotonin 4 (5-HT4) receptor (Q6Q253 whole entry): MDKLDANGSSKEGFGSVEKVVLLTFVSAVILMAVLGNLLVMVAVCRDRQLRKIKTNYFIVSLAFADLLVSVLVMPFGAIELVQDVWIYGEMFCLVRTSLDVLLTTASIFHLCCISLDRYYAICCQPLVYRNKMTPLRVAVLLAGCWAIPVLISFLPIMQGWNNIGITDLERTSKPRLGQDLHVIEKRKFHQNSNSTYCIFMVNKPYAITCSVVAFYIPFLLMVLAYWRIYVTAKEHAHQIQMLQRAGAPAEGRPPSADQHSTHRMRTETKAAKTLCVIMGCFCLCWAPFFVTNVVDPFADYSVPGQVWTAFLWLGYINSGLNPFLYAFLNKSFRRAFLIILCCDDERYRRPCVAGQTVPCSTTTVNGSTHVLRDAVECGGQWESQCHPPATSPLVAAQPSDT

For the molecule `COc1ccccc1N1CCC(CNCC2COc3ccc(Cl)cc3O2)CC1` (stereo not given), the Ki in assay [1] is 53 nM; in assay [2] it was over 1000 nM; in assay [3], over 500 nM; at D(1A) dopamine receptor, over 1000 nM; in assay [4], 3.6 nM.
